The source of these data is the NIST ThermoML archive (doi:10.1016/j.fluid.2015.03.036).

± gives the expanded uncertainty stated by the source.

Data set [1] in a line: Solid-liquid equilibrium temperature. The note with it: 100 kPa; Crystal; DTA.
A short description of data set [2]: Molar enthalpy of transition or fusion. The note with it: Crystal; DSC.

On to `O=P(Nc1ccccc1)(Oc1ccccc1)Oc1ccccc1` [diphenyl anilinophosphonate], for which, in data set [1], the Solid-liquid equilibrium temperature is 406.91 ± 0.32 K. The “Molar enthalpy of transition or fusion” value in data set [2] came to 0.0171 ± 0.0406 kcal/mol.
